US10246426B2, “Triazole compounds as T-type calcium channel blockers” (IDORSIA PHARMACEUTICALS LTD, priority 2014, dated 2019)

Biological target: Cav3.2 (Homo sapiens, UniProt O95180)
Test: Calcium flux FLIPR assay, HEK293 cells recombinantly expressing Cav3.2
Assay type: cell-based
Settings: Cav3.2-channel, Ca2+ entry stimulated by 10 mM CaCl2
Method: In Vitro Methods—Measurement of Calcium Channel Flux by Means of FLIPR Assays.
HEK293 cells recombinantly expressing either voltage-dependent T-type calcium channel subunit […] (Cav3.2) or voltage-dependent L-type calcium channel subunit alpha-1C (Cav1.2) are assayed for calcium flux using the calcium indicator dye Fluo-4-AM (Molecular Devices) and FLIPR technology (Fluorometric Imaging Plate Reader, Molecular Devices) (Xie X, Van Deusen A L, Vitko I, Babu D A, Davies L A, Huynh N, Cheng H, Yang N, Barrett P Q, Perez-Reyes E. Validation of high throughput screening assays against three subtypes of Ca(v)3 T-type channels using molecular and pharmacologic approaches. Assay and Drug Development Technologies 2007, 5(2), 191-203). The HEK293 cells recombinantly expressing Cav3.2 are maintained in DMEM growth medium (Life Technologies) supplemented with 10% Fetal Bovine Serum (FBS), 100 U/ml penicilin (Life Technologies), 100 μg/ml streptomycin (Life Technologies) and 1 mg/ml G418 (Life Technologies). HEK293 cells recombinantly expressing Cav1.2 are maintained in DMEM growth medium (Life technologies) supplemented with 10% FBS, 0.1 mg/ml G418 (Life Technologies), 0.1 mg/ml hygromycin (Life Technologies) and 40 ug/ml zeocin (Life Technologies).
Cells are washed once with PBS, then dissociated in 0.25% trypsin/EDTA (Life Technologies) and seeded into poly-D-lysine coated 384-well black, clear bottom plates (BD Biosciences) at a density of 30,000 cells/well. The seeded plates are incubated overnight at 37° C.
Immediately prior to performing the assay, medium is removed and cells are treated for 1 hour at 37° C. with loading buffer containing HBSS 1× (137 mM NaCl; 5.4 mM KCl; 0.25 mM Na2HPO4; 1.3 mM CaCl2; 0.4 mM MgSO04; 0.5 mM MgCl2; 0.4 mM KH2PO4, pH 7.4), 0.375 g/L NaHCO3, 20 mM Hepes, supplemented with 3 μM Fluo-4-AM and 0.15% Pluronic (Life Technologies). The cells are then washed three times with assay buffer (HBSS 1×; 0.375 g/L NaHCO3; 20 mM Hepes; 1% FBS; pH 7.4) and allowed to rest in 50 μl of wash buffer for 30 minutes.
Stock solutions of test compounds are prepared to a concentration of 10 mM in DMSO. For the Cav3.2 assay, serial dilutions of the compounds are prepared in TEAC buffer (100 mM tetraethylammonium chloride; 20 mM Hepes; 2.5 mM CaCl2; 5 mM KCl; 1 mM MgCl2; 1% FBS; pH 7.2), for the Cav1.2 assay serial dilutions are prepared in assay buffer. […] The compounds are incubated with the cells for 3 minutes and Ca2+ entry is stimulated by adding either CaCl2 to a final concentration of 10 mM (Cav3.2 assay) or by adding KCl to a final concentration of 20 mM (Cav1.2 assay). The kinetics of fluorescence increase are recorded for every well and the area under the fluorescence trace for every compound concentration is used to generate inhibition curves using non-linear regression sigmoidal concentration-response curve analysis with in-house software. IC50 values are calculated and represent the compound concentration required to inhibit 50% of the signal that is obtained in the presence of vehicle instead of test compound.

Chain of Cav3.2 (O95180 whole entry, looked up): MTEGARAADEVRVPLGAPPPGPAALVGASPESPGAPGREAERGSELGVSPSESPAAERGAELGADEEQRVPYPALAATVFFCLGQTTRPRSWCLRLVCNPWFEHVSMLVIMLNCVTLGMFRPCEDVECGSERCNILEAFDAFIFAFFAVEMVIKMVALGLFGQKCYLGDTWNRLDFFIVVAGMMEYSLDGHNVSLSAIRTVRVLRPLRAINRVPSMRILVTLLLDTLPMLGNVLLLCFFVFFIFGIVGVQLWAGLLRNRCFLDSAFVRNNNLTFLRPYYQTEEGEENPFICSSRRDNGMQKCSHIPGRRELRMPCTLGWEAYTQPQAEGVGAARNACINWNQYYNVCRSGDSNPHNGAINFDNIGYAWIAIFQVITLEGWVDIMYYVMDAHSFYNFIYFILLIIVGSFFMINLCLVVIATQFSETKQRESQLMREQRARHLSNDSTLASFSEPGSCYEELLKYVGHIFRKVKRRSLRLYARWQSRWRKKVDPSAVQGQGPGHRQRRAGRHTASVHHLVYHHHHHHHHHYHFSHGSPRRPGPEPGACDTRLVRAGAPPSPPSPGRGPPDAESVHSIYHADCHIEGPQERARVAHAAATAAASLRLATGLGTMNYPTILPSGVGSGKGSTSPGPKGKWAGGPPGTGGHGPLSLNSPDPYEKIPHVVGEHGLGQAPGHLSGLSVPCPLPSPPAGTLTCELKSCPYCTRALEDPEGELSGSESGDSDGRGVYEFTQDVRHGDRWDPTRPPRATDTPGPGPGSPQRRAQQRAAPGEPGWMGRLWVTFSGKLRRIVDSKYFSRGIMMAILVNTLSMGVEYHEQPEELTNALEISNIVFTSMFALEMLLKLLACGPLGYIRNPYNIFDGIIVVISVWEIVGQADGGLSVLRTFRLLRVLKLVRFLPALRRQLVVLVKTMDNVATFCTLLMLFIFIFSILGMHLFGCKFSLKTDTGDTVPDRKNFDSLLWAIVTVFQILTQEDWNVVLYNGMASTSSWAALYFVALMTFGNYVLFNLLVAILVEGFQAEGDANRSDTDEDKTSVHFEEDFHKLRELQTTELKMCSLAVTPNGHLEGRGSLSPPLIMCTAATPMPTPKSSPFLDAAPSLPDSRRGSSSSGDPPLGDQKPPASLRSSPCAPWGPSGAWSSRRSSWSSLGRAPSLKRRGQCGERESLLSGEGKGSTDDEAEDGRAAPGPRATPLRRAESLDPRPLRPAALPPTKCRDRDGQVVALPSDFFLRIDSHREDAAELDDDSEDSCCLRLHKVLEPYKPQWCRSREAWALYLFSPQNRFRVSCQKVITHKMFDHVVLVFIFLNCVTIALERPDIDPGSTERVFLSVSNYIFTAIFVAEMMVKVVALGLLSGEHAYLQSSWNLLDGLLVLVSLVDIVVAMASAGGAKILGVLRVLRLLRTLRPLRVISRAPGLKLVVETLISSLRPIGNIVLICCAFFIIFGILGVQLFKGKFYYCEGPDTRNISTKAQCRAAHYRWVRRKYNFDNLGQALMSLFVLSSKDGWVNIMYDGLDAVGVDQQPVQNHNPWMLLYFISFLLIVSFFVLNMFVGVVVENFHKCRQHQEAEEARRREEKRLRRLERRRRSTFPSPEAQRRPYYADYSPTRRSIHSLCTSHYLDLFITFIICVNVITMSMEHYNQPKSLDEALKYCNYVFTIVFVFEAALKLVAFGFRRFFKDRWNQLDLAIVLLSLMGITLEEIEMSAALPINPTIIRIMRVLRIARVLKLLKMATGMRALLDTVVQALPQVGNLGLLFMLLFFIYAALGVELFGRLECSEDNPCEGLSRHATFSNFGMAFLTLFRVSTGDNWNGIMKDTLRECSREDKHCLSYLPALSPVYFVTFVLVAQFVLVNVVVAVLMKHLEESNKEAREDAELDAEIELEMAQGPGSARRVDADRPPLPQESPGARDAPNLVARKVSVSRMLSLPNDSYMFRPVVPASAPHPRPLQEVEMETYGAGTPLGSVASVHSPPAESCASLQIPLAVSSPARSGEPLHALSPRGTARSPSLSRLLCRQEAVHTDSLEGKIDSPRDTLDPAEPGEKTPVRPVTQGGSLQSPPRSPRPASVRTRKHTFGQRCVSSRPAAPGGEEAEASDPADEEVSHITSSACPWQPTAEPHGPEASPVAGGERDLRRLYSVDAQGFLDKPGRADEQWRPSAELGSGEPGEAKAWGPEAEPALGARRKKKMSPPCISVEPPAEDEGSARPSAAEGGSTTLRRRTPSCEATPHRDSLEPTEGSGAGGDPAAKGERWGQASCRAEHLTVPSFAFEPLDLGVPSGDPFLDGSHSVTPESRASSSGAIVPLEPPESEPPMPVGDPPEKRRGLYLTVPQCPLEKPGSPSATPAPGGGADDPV

IC50	SMILES
21 nM	CC(C)c1ccc(CC(=O)Nc2cnn(Cc3ccc(F)cc3)n2)cc1 [Example 1, N-[2-(4-Fluoro-benzyl)-2H-[1,2,3]triazol4-yl]-2-(4-isopropyl-phenyl)-acetamide]
17 nM	CN(C)c1ccc(CC(=O)Nc2cnn(Cc3ccc(F)cc3)n2)cc1 [Example 2, 2-(4-Dimethylamino-phenyl)-N-[2-(4-fluoro-benzyl)-2H-[1,2,3]triazol-4-yl]-acetamide]
30 nM	CC(C)c1ccc(CC(=O)Nc2cnn(Cc3ccc(F)c(F)c3)n2)cc1 [Example 5, N-[2-(3,4-Difluoro-benzyl)-2H-[1,2,3]triazol-4-yl]-2-(4-isopropyl-phenyl)-acetamide]
6.4 nM	Cn1ccc2cc(CC(=O)Nc3cnn(Cc4ccc(F)c(F)c4)n3)ccc21 [Example 7, N-[2-(3,4-Difluoro-benzyl)-2H-[1,2,3]triazol-4-yl]-2-(1-methyl-1H-indol-5-yl)-acetamide]
37 nM	O=C(Cc1ccc2cc[nH]c2c1)Nc1cnn(Cc2ccc(F)c(F)c2)n1 [Example 8, N-[2-(3,4-Difluoro-benzyl)-2H-[1,2,3]triazol-4-yl]-2-(1H-indol-6-yl)-acetamide]
23 nM	O=C(Cc1ccc(OC2CC2)cc1)Nc1cnn(Cc2ccc(F)c(F)c2)n1 [Example 10, 2-(4-Cyclopropoxy-phenyl)-N-[2-(3,4-difluoro-benzyl)-2H-[1,2,3]triazol-4-yl]-acetamide]
32 nM	CN(c1ccc(CC(=O)Nc2cnn(Cc3ccc(F)c(F)c3)n2)cn1)C1CC1 [Example 11]
31 nM	CN(CC1CC1)c1ccc(CC(=O)Nc2cnn(Cc3ccc(F)c(F)c3)n2)cn1 [Example 12, 2-[6-(Cyclopropylmethyl-methyl-amino)-pyridin-3-yl]-N-[2-(3,4-difluoro-benzyl)-2H-[1,2,3]triazol-4-yl]-acetamide]
17 nM	O=C(Cc1ccc(C2(F)COC2)cc1)Nc1cnn(Cc2ccc(F)c(F)c2)n1 [Example 14, N-[2-(3,4-Difluoro-benzyl)-2H-[1,2,3]triazol-4-yl]-2-[4-(3-fluoro-oxetan-3-yl)-phenyl]-acetamide]
40 nM	O=C(Cc1ccc2[nH]ccc2c1)Nc1cnn(Cc2ccc(F)c(F)c2)n1 [Example 15, N-[2-(3,4-Difluoro-benzyl)-2H-[1,2,3]triazol-4-yl]-2-(1H-indol-5-yl)-acetamide]
15 nM	CCN(CC)c1ccc(CC(=O)Nc2cnn(Cc3ccc(F)c(F)c3)n2)cn1 [Example 16, 2-(6-Diethylamino-pyridin-3-yl)-N-[2-(3,4-difluoro-benzyl)-2H-[1,2,3]triazol-4-yl]-acetamide]
7.3 nM	O=C(Cc1ccc(N2CCC(F)(F)C2)nc1)Nc1cnn(Cc2ccc(F)c(F)c2)n1 [Example 17, N-[2-(3,4-Difluoro-benzyl)-2H-[1,2,3]triazol-4-yl]-2-[6-(3,3-difluoro-pyrrolidin-1-yl)-pyridin-3-yl]-acetamide]
15 nM	O=C(Cc1ccc(N2CCCC2)nc1)Nc1cnn(Cc2ccc(F)c(F)c2)n1 [Example 18, N-[2-(3,4-Difluoro-benzyl)-2H-[1,2,3]triazol-4-yl]-2-(6-pyrrolidin-1-yl-pyridin-3-yl)-acetamide]
9.7 nM	CN1C(=O)C(C)(C)c2cc(CC(=O)Nc3cnn(Cc4ccc(F)c(F)c4)n3)ccc21 [Example 19, N-[2-(3,4-Difluoro-benzyl)-2H-[1,2,3]triazol-4-yl]-2-(1,3,3-trimethyl-2-oxo-2,3-dihydro-1H-indol-5-yl)-acetamide]
89 nM	COC1(c2ccc(CC(=O)Nc3cnn(Cc4ccc(F)c(F)c4)n3)cc2)COC1 [Example 20, N-[2-(3,4-Difluoro-benzyl)-2H-[1,2,3]triazol-4-yl]-2-[4-(3-methoxy-oxetan-3-yl)-phenyl]-acetamide]
15 nM	CC1(c2ccc(CC(=O)Nc3cnn(Cc4ccc(F)c(F)c4)n3)cc2)COC1 [Example 22, N-[2-(3,4-Difluoro-benzyl)-2H-[1,2,3]triazol-4-yl]-2-[4-(3-methyl-oxetan-3-yl)-phenyl]-acetamide]
46 nM	O=C(Cc1ccc(C2COC2)cc1)Nc1cnn(Cc2ccc(F)c(F)c2)n1 [Example 23, N-[2-(3,4-Difluoro-benzyl)-2H-[1,2,3]triazol-4-yl]-2-(4-oxetan-3-yl-phenyl)-acetamide]
37 nM	Cc1ccc(Cn2ncc(NC(=O)Cc3ccc(C(C)C)cc3)n2)cc1 [Example 24, 2-(4-Isopropyl-phenyl)-N-[2-(4-methyl-benzyl)-2H-[1,2,3]triazol-4-yl]-acetamide]
33 nM	COc1ccc(Cn2ncc(NC(=O)Cc3ccc(C(C)C)cc3)n2)cc1 [Example 25, 2-(4-Isopropyl-phenyl)-N-[2-(4-methoxy-benzyl)-2H-[1,2,3]triazol-4-yl]-acetamide]
19 nM	CC(C)c1ccc(CC(=O)Nc2cnn(Cc3ccc(C#N)cc3)n2)cc1 [Example 26, N-[2-(4-Cyano-benzyl)-2H-[1,2,3]triazol-4-yl]-2-(4-isopropyl-phenyl)-acetamide]
9.8 nM	CCn1ncc2cc(CC(=O)Nc3cnn(Cc4ccc(F)c(F)c4)n3)ccc21 [Example 27, N-[2-(3,4-Difluoro-benzyl)-2H-[1,2,3]triazol-4-yl]-2-(1-ethyl-1H-indazol-5-yl)-acetamide]
22 nM	Cc1nn(C)c2ccc(CC(=O)Nc3cnn(Cc4ccc(F)c(F)c4)n3)cc12 [Example 28, N-[2-(3,4-Difluoro-benzyl)-2H-[1,2,3]triazol-4-yl]-2-(1,3-dimethyl-1H-indazol-5-yl)-acetamide]
120 nM	O=C(Cc1ccc2[nH]nc(C3CC3)c2c1)Nc1cnn(Cc2ccc(F)c(F)c2)n1 [Example 29, 2-(3-Cyclopropyl-1H-indazol-5-yl)-N-[2-(3,4-difluoro-benzyl)-2H-[1,2,3]triazol-4-yl]-acetamide]
17 nM	CCCCn1ncc2cc(CC(=O)Nc3cnn(Cc4ccc(F)c(F)c4)n3)ccc21 [Example 30, 2-(1-Butyl-1H-indazol-5-yl)-N-[2-(3,4-difluoro-benzyl)-2H-[1,2,3]triazol-4-yl]-acetamide]
11 nM	Cc1cc2cc(CC(=O)Nc3cnn(Cc4ccc(F)c(F)c4)n3)ccc2[nH]1 [Example 31, N-[2-(3,4-Difluoro-benzyl)-2H-[1,2,3]triazol-4-yl]-2-(2-methyl-1H-indol-5-yl)-acetamide]
74 nM	CCCCc1n[nH]c2ccc(CC(=O)Nc3cnn(Cc4ccc(F)c(F)c4)n3)cc12 [Example 32, 2-(3-Butyl-1H-indazol-5-yl)-N-[2-(3,4-difluoro-benzyl)-2H-[1,2,3]triazol-4-yl]-acetamide]
24 nM	CC(C)n1ncc2cc(CC(=O)Nc3cnn(Cc4ccc(F)c(F)c4)n3)ccc21 [Example 33, N-[2-(3,4-Difluoro-benzyl)-2H-[1,2,3]triazol-4-yl]-2-(1-isopropyl-1H-indazol-5-yl)-acetamide]
18 nM	CCCn1ncc2cc(CC(=O)Nc3cnn(Cc4ccc(F)c(F)c4)n3)ccc21 [Example 34, N-[2-(3,4-Difluoro-benzyl)-2H-[1,2,3]triazol-4-yl]-2-(1-propyl-1H-indazol-5-yl)-acetamide]
29 nM	Cn1nc(C2CC2)c2cc(CC(=O)Nc3cnn(Cc4ccc(F)c(F)c4)n3)ccc21 [Example 35, 2-(3-Cyclopropyl-1-methyl-1H-indazol-5-yl)-N-[2-(3,4-difluoro-benzyl)-2H-[1,2,3]triazol-4-yl]-acetamide]
580 nM	Cn1ncc2cc(CC(=O)Nc3cnn(Cc4ccc(F)c(F)c4)n3)cnc21 [Example 38, N-[2-(3,4-Difluoro-benzyl)-2H-[1,2,3]triazol-4-yl]-2-(1-methyl-1H-pyrazolo[3,4-b]pyridin-5-yl)-acetamide]

SMILES	IC50
O=C(Cc1ccc(OC2CCC2)cc1)Nc1cnn(Cc2ccc(F)c(F)c2)n1 [Example 9, 2-(4-Cyclobutoxy-phenyl)-N-[2-(3,4-difluoro-benzyl)-2H-[1,2,3]triazol-4-yl]-acetamide]	22 nM
